Assay results taken from PMC11891579, “Fluorescent PyrAte-(S)-citalopram conjugates enable imaging of the serotonin transporter in living tissue” (Chemical Science, 2025).

Tests used:
[1] = photophysical properties in aqueous media; format: physicochemical; conditions: PBS:DMSO 99:1 v/v; for Quantum yield: C153 as internal standard
From the text: Table S5. Photophysical properties of PyrAte-(S)-citalopram conjugates in aqueous media (PBS:DMSO
99:1 v/v). C153 (coumarin 153) was used as internal standard for the measurement of quantum yield.
Compound λmax (nm) λEm (nm) Stokes shift ε at λmax Quantum Brightness (at λmax,
(nm) (M-1 cm-1) yield 103 M-1 cm-1)

hNET = biological target: T1, hNET (Homo sapiens, UniProt P23975); test: radioligand uptake inhibition assay ([3H]MPP+); format: cell-based; conditions: for IC50: HEK293 stably expressing hNET, 20 nM [3H]MPP+, mean and SD, N = 3-6, read-out: IC50, uptake inhibition at NET (hNET); for Hill coefficient nH at NET: uptake inhibition curve
T1 construct: expressed in transfected cells
Experimental: (§1) 1. Biological characterization
(§2) 1.1. Experimental methods
(§3) Buffer and solution compositions (in mM) are as follows:
(§4) Krebs-HEPES buffer (KHB): 120 NaCl, 3 KCl, 2 CaCl2, 2 MgCl2, 20 glucose, 10 HEPES NaOH, pH = 7.3 – 7.4. […]
(§5) 10 mM glucose, 1.25 mM NaH2PO4, pH = 7.4 (oxygenated with 95% O2, 5% CO2).
(§6) Human embryonic kidney 293 cells (HEK293) stably expressing the mCherry-tagged, YFP-tagged, and GFP-tagged human isoforms of SERT (mCherry-SERT, YhSERT, GhSERT), DAT (YhDAT), NET (hNET), and OCT3 (YhOCT3) were cultured in Dulbecco's modified Eagle's medium (DMEM) with high glucose (4.5 g/L) and l-glutamine (584 mg/L), supplemented with 10% fetal calf serum (FCS), 100 units/mL penicillin and 100 µg/mL streptomycin. The cells were cultured in a humidified atmosphere (37 °C, 5% CO2). Geneticin (50 µg/mL), Blasticidin (6 µg/mL), and Zeocin® (150 µg/mL) were added to maintain the selection pressure for the stable cell lines. Cells were typically seeded 24 hours prior to the experiments.
(§7) For uptake inhibition experiments, cells were seeded at 3.6 x 10^4 cells/0.2 mL into 96-well plates coated […]
(§8) with poly-d-lysine (PDL). […]
(§9) For uptake inhibition experiments, the cell medium was aspirated and the cells were washed once with 0.2 mL/well KHB at room temperature. The cells were pre-incubated with increasing concentrations of the substance of interest, diluted in KHB (0.05 mL/well). The pre-incubation solution was replaced with 0.05 mL/well KHB solution still containing the substance of interest and additionally the tritiated substrate (100 nM [3H]DA for YhDAT; 100 nM [3H]5HT for YhSERT; 20 nM and 50 nM [3H]MPP+ for hNET and YhOCT3), after 6 minutes (YhSERT), 5 minutes (YhDAT, hNET), or 10 minutes (YhOCT3). Substrate uptake was stopped after one minute (for [3H]DA and [3H]5HT), three minutes, or […]
ten minutes (for [3H]MPP+), by exchange of the substrate-containing buffer with 0.2 mL ice-cold KHB.
The KHB was aspirated immediately. Cells were lysed and prepared for [3H] content analysis by adding 0.2 mL Ultima Gold™ XR liquid scintillation cocktail. Measurements were performed in a 1450 MicroBeta microplate liquid scintillation counter. Non-specific uptake was determined in the presence of 30 µM paroxetine (for YhSERT), 50 µM GBR12909 (for YhDAT and hNET), or 100 µM decynium-22 (for YhOCT3). […]

YhOCT3 = biological target: T2, YhOCT3 (Homo sapiens, UniProt O75751); test: radioligand uptake inhibition assay ([3H]MPP+); format: cell-based; conditions: for IC50: HEK293 stably expressing YhOCT3, 50 nM [3H]MPP+, mean and SD, N = 3-6, read-out: IC50, uptake inhibition at OCT3 (YhOCT3); for Hill coefficient nH at OCT3: uptake inhibition curve
T2 construct: expressed in transfected cells
T2 sequence (O75751 1-556): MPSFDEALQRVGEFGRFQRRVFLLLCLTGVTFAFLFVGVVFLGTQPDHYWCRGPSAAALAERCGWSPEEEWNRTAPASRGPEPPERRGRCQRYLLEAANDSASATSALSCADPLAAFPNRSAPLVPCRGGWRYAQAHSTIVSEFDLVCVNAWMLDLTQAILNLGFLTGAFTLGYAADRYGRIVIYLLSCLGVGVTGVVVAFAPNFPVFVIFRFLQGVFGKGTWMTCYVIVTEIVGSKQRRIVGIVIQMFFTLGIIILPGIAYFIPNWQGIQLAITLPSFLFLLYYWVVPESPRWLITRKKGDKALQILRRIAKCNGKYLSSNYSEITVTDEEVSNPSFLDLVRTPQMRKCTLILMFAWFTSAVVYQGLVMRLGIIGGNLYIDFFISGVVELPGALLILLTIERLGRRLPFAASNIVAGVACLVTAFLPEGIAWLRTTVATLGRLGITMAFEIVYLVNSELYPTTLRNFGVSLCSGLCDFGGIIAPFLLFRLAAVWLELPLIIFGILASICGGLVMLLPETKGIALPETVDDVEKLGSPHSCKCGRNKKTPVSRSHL
Experimental: as §1, §2, §3, §4, §5, §6, §7, §8, §9
The KHB was aspirated immediately. […] Non-specific uptake was determined in the presence of 30 µM paroxetine (for YhSERT), 50 µM GBR12909 (for YhDAT and hNET), or 100 µM decynium-22 (for YhOCT3). […]
[3H]-imipramine, and increasing concentrations of test compound, for 60 min at 20 – 22 °C. […] The amount of radioactivity in the filters was measured using a Tri-Carb 2800TR liquid scintillation analyzer (PerkinElmer). The Ki was calculated from the measured IC50 using the Cheng-Prusoff equation.
Prior to imaging, cell culture medium was replaced with pre-warmed KHB. […] PyrAtes were excited using a 405 nm laser, and its fluorescent signals collected using 525/50 nm emission filters; mCherry was excited using a 561 nm laser, and fluorescence was collected using 595/50 nm emission filters. […]
5HT-mediated currents were measured at room temperature (20-25°C) using whole-cell patch clamp in HEK293 cells stably expressing SERT. […]

T1 sequence (P23975 whole entry): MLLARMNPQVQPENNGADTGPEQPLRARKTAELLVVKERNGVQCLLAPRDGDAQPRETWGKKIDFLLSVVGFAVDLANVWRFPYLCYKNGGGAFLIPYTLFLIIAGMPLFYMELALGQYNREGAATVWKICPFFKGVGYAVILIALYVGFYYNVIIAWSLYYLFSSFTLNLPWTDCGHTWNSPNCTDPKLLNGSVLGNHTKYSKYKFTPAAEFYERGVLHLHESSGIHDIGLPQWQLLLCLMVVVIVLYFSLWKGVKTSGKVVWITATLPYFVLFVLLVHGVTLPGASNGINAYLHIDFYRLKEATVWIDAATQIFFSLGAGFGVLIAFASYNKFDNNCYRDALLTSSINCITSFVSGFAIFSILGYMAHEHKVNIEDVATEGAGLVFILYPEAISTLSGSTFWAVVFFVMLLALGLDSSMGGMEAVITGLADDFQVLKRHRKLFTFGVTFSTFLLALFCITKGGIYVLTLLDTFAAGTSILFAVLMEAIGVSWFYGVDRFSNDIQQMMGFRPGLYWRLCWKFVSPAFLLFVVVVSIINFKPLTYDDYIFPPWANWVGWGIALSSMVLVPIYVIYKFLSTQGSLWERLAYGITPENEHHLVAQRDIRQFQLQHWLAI

SMILES | Brightness (at λmax) [1] | Stokes shift [1] [nm] | ε at λmax [1] [M⁻¹ cm⁻¹] | λEm [1] [nm] | λmax [1] [nm] | Quantum yield [1] | IC50 (hNET) [µM] | Hill coefficient nH at NET (hNET) | IC50 (YhOCT3) [µM] | Hill coefficient nH at OCT3 (YhOCT3)
CCN(CC)c1ccc(-c2cc[n+]3c(-c4ccccc4)c(N4CCCC4)n(CCCC(=O)NCc4ccc5c(c4)CO[C@@]5(CCCN(C)C)c4ccc(F)cc4)c3c2)cc1 [PYR-C3-CIT, PyrAte-C3-(S)-citalopram] | 24.0 103 M-1 cm-1 | 88 | 30000 | 493 | 405 | 0.82 | 10.9 | −1.0 | 3.32 | −2.1
CCN(CC)c1ccc(-c2cc[n+]3c(-c4ccccc4)c(N4CCCC4)n(CCCCCCC(=O)NCc4ccc5c(c4)CO[C@@]5(CCCN(C)C)c4ccc(F)cc4)c3c2)cc1 [PYR-C6-CIT, PyrAte-C6-(S)-citalopram] | 27.0 103 M-1 cm-1 | 87 | 39600 | 493 | 406 | 0.69 | 12.6 | −1.3 | 2.1 | −2.3
